In patent US7691862B2, “Method and composition for treating periodontal disease” (Regena Therapeutics LC, priority 2003, dated 2010):
Like-named read-outs stand apart in the source and are kept apart here. Marks after values point to notes of the source that are not given here.

Tests used:
[1] = system: mammalian calvarial cells; conditions: in vitro culture; cited from earlier work
[2] = system: canine mandible alveolar bone; conditions: cited from earlier work
[3] = in vivo; cited from earlier work
albumin = albumin (Homo sapiens, UniProt P02768); conditions: cited from earlier work
[4] = system: periodontal pockets of patients with moderate-to-advanced periodontitis; assay: Randomized double-blind placebo-controlled study: change in periodontal pocket probing depth after scaling, root planing and curettage; format: in vivo, human
Protocol: 1.1 Overall Study Design and Plan This was a randomized, double-blind, single-center, multiple-dose, parallel-group, placebo-controlled study. At baseline, patients presenting at Periodontal Specialists of Ames for the treatment of periodontitis were screened for the study. Patients were assessed using medical histories, dental histories, blood pressure, pulse, pregnancy tests (if female), periapical radiographs and periodontal examinations. Patients who met all of the inclusion and exclusion criteria, appeared in good health other than periodontitis, and who had documented moderate-to-advanced periodontitis with at least four destructive periodontal-diseased pockets (ranging from 5 to 12 mm in depth) were eligible for study participation. Each patient underwent a gross debridement, following which, he/she was randomized to one of four treatment groups:
Patients randomized to receive doxycycline (Groups B and C) were administered a loading dose of doxycycline 100 mg BID for one day and then instructed to take doxycycline 100 mg QD for nine consecutive days; patients in Groups A and D received matching doxycycline placebo for ten days.
On the last day of doxycycline/placebo administration, patients reported to the clinical research facility and underwent (under local anesthesia) dental sub-gingival scaling, root planing, and curettage on one side of the mouth. Following completion of these procedures, patients randomized to misoprostol (Groups C and D) received an application of a misoprostol paste (10 ug/site) and those randomized to placebo (Groups A and B) received placebo paste. Patients were instructed to apply the paste to each quadrant four times daily for the next week. One week later, patients returned to the clinical research facility and underwent sub-gingival scaling, root planing, and curettage on the other side of the mouth. The misoprostol/placebo paste was administered as described above. Patients were instructed to apply the paste to the affected teeth four times daily for an additional six weeks. They were also instructed to the proper use of the rubber tip for six weeks.
At two weeks post-treatment, patients were contacted for adverse event monitoring and compliance with study drug administration. Six weeks following the second sub-gingival scaling, planing, and curettage procedure, patients returned to the clinical research facility for periodontal and adverse event assessments. Dental prophylaxis, including periodontal maintenance was repeated at the three month intervals, with final assessments performed at 52 weeks post-treatment.
The initial dose of the misoprostol/placebo paste was applied by the periodontist, and all subsequent doses were applied by the patient. Each affected tooth was wiped with a 2×2 sponge to dry the tissue. Then 0.2 ml of the paste was dispensed from the 10.0 ml syringe onto the tip of the finger and applied to each affected tooth. The patient then sipped a little water and gently flushed the paste to gel it. Patients were instructed not to eat anything for at least one hour.
1.5.1.2.1. Periodontal Pocket Probing Depth Periodontal probing depths were measured at baseline, at six weeks post-treatment, and at 3, 6, 9 and 12 months post-treatment. More recently, a larger study at three weeks post treatment was performed as described in Example
To measure the periodontal pocket probing depth, a manual University of Michigan off-set probe marked in millimeters was inserted into the pocket with the long axis parallel to the long axis of the tooth. Insertion was continued to the base of the pocket with gentle pressure until a distinct resistance was felt.
The measurement from the tip of the probe to the gingival margin (GM-BP, gingival margin to the base of the pocket) was recorded in millimeters. On measurements of proximal sites the gingival margin may cross the probe at an angle, and the highest point on the side of the probe was read. […]

[5] = cited from earlier work
[6] = 6 Weeks post-treatment, baseline pocket depth 5 mm
[7] = 6 Weeks post-treatment, baseline pocket depth 6 mm
[8] = 6 Weeks post-treatment, baseline pocket depth 7 mm
[9] = 6 Weeks post-treatment, baseline pocket depth 8 mm
[10] = 6 Weeks post-treatment, baseline pocket depth 9 mm
[11] = 6 Weeks post-treatment, baseline pocket depth 10 mm
[12] = 6 Weeks post-treatment, baseline pocket depth ≦4 mm
[13] = 52 Weeks post-treatment, baseline pocket depth 5 mm
[14] = 52 Weeks post-treatment, baseline pocket depth 6 mm
[15] = 52 Weeks post-treatment, baseline pocket depth 7 mm
[16] = 52 Weeks post-treatment, baseline pocket depth 8 mm
[17] = 52 Weeks post-treatment, baseline pocket depth 9 mm
[18] = 52 Weeks post-treatment, baseline pocket depth 10 mm
[19] = 52 Weeks post-treatment, baseline pocket depth ≦4 mm

albumin, sequence (P02768 25-609, species assumed): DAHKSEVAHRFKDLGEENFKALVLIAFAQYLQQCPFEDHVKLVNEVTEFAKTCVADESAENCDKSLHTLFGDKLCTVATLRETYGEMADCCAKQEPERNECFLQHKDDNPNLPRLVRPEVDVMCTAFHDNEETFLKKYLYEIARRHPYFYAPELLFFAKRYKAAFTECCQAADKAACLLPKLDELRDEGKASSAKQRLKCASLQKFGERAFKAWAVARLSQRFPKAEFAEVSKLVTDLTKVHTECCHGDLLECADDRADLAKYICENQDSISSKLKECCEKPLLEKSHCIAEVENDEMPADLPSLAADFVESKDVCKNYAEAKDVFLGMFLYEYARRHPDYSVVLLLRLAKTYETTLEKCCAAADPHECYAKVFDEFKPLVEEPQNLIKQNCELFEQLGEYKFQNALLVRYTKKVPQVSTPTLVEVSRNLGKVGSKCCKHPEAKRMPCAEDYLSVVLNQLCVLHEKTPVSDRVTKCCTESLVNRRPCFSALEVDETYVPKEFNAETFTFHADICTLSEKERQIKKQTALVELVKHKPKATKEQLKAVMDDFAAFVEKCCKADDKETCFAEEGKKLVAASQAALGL

Row | Structure (SMILES) | Mean Changes in Pocket Depths Using Patient as Inference [4, 6] | Mean Changes in Pocket Depths Using Patient as Inference [4, 7] | Mean Changes in Pocket Depths Using Patient as Inference [4, 8] | Mean Changes in Pocket Depths Using Patient as Inference [4, 9] | Mean Changes in Pocket Depths Using Patient as Inference [4, 10] | Mean Changes in Pocket Depths Using Patient as Inference [4, 11] [mm] | Mean Changes in Pocket Depths Using Patient as Inference [4, 12] [mm] | Mean Changes in Pocket Depths Using Patient as Inference [4, 13] | Mean Changes in Pocket Depths Using Patient as Inference [4, 14] | Mean Changes in Pocket Depths Using Patient as Inference [4, 15] | Mean Changes in Pocket Depths Using Patient as Inference [4, 16] | Mean Changes in Pocket Depths Using Patient as Inference [4, 17] | Mean Changes in Pocket Depths Using Patient as Inference [4, 18] [mm] | Mean Changes in Pocket Depths Using Patient as Inference [4, 19] | other results
1 | CCCCC[C@H](O)/C=C/[C@H]1[C@H](O)CC(=O)[C@@H]1CCCCCCC(=O)O [PGE1, prostaglandin E1] |  |  |  |  |  |  |  |  |  |  |  |  |  |  | formation of mineralized nodules [1]: increases the formation of mineralized nodules; new bone formation; thickness and appositional rate of alveolar bone ([2]; local application, adult dogs (Marks 1988)): increases the thickness and appositional rate of alveolar bone; alveolar bone height, cementum and periodontal ligaments ([2]; local delivery, premolars and molars of adult dogs (Marks 1994)): increases alveolar bone height and regenerates cementum and periodontal ligaments
2 | CCCCC(C)(O)C/C=C/[C@H]1[C@H](O)CC(=O)[C@@H]1CCCCCCC(=O)O (mixture of isomers) [Misoprostolic acid] |  |  |  |  |  |  |  |  |  |  |  |  |  |  | half-life [3]: about 30 minutes; albumin bound (albumin): approximately 85%
3 | C[C@H]1c2cccc(O)c2C(=O)C2=C(O)[C@]3(O)C(=O)C(C(N)=O)=C(O)[C@@H](N(C)C)[C@@H]3[C@@H](O)[C@@H]21 [Doxycycline] | 1.96* mm | 2.63* mm | 3.04* mm | 3.57* mm | 4.23* mm | 4.13 | 0.84 | 0.42 mm | 0.79 mm | 1.42 mm | 1.71 mm | 2.86 mm | 3.28 | −0.22* mm | improvement in pocket depth (from the Figures) ([4]; pocket depth originally 10 mm, Week 52): 3 mm; reduction in depth (from the Figures) ([4]; pocket depth originally 10 mm, at 6 weeks): ~5 mm
4 | CCCC[C@@](C)(O)C/C=C/[C@H]1[C@H](O)CC(=O)[C@@H]1CCCCCCC(=O)OC (racemic) [Misoprostol, methyl-(11α, 13E)-11,16-dihydroxy-16-methyl-9-oxoprost-13-en-1-oate] | 1.57 mm | 2.13 mm | 2.68 mm | 2.84 mm | 4.46* mm | 4.70 | 0.58 | 1.76*† mm | 2.49† mm | 3.28*† mm | 3.90*† mm | 5.06*† mm | 4.75 | 0.75*† mm | improvements in pocket depths compared to scaling, root planning and curettage alone ([4]; 52 weeks post-treatment): statistically significant improvements; mean changes in pocket depths compared to doxycycline+placebo ([4]; 52 weeks post-treatment, Wilcoxon rank-sum): statistically significantly greater improvements; tooth mobility ([4]; along with the decreases in pocket depth): decreases in tooth mobility; patients requiring surgical intervention to stop the progression of the disease ([4]; in vivo): none of the patients; reduction in pocket depth ([4]; original pocket depth 10 mm or greater, after 6 weeks): 40-50%; storage stability ([5]; dissolved in absolute alcohol (ethanol) and frozen): stable for at least a year; storage stability ([5]; dry state, stabilized with hydroxypropyl methyl cellulose): a couple years; stability of creams ([5]; in the presence of water, breaks down to prostaglandin A): creams last approximately only one week
